Laboratory results from PMC6178189 (Oxidative Medicine and Cellular Longevity, 2018).
≈ marks a conversion by molar mass, not a printed value.

Biological target: T1, rat intestinal α-glucosidase
T1 construct: gene Si; crude saline extract of commercial rat intestinal acetone powder (Sigma-Aldrich); mixed brush-border alpha-glucosidases, not purified
Assay: p-nitrophenol release from pNPG, […] nm
Assay type: biochemical
Settings: 5 mM p-nitrophenyl glucopyranoside (maltose or sucrose also named in method; substrate of the table value not told), 0.1 M phosphate pH 6.9, 37°C, 30 min, crude enzyme

- IC50 (mg/mL) / α-Glucosidase: 1.63 ± 0.10 mg/mL (≈ 2520 µM)
SMILES: C[C@H]1O[C@H](O[C@H]2[C@H](O)[C@@H](O)[C@@H](O[C@H]3[C@H](O)[C@@H](O)C(O)O[C@@H]3CO)O[C@@H]2CO)[C@H](O)[C@@H](O)[C@@H]1N[C@H]1C=C(CO)[C@@H](O)[C@H](O)[C@H]1O (stereo partly shown) [acarbose]
